ChEMBL document CHEMBL1143533, “A short, stereoselective, and common approach for the synthesis of 4,5-disubstituted delta-lactones simplactone B and its C-5 analogue” (Bioorg Med Chem Lett, 2005)
pIC50: −log10 of the molar value.

Assay: Inhibitory concentration against human breast cancer cell line (HBL-100) by MTT method
Assay type: functional, cell-based
Conditions: Cancer cell lines

CCCCCCCCCCCCCC[C@@H]1COC(=O)C[C@H]1O showed a pIC50 of 6.75.
